Patent publication US20120309811A1, “P-GLYCOPROTEIN-SPECIFIC NON-COMPETITIVE PEPTIDE AND PEPTIDOMIMETIC MODULATORS” (UNIVERSITE CLAUDE BERNARD - LYON 1, priority 2009, published 2012)
Square brackets hold non-standard residues; d marks the D form. Peptide text beside a SMILES is read from it. * marks the point of attachment. Hyp = O=C(O)[C@@H]1C[C@@H](O)CN1; Cbz = O=C(OCc1ccccc1)*; Boc = CC(C)(C)OC(=O)*; OBn = c1ccc(CO*)cc1; Bn = c1ccc(C*)cc1; OtBu = CC(C)(C)O*

Columns and labels:
ABCG2 = target: T1, ABCG2 (Homo sapiens, UniProt Q9UNQ0); design: key: the inhibitor is active (+); it is inactive (−); the effect is unknown (?); conditions: cited from earlier work
T1 sequence (Q9UNQ0 1-655): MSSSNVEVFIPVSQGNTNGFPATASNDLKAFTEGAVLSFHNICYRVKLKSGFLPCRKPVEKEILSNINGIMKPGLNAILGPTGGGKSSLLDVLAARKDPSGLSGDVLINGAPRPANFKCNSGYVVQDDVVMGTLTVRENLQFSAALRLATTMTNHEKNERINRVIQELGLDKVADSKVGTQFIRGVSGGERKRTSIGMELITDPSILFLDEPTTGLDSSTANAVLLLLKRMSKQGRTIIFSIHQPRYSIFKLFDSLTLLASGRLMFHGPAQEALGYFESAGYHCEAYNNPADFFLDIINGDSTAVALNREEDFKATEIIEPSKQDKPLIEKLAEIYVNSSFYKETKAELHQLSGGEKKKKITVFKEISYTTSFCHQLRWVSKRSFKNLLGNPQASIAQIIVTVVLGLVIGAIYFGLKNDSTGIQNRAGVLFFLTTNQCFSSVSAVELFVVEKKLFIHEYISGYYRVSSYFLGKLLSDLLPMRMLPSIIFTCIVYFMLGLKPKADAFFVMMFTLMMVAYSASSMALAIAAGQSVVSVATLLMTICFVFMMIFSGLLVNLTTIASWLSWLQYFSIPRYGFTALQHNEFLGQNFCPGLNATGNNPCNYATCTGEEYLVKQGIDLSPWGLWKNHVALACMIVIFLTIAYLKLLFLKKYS

ABCB1 = ABCB1 (Homo sapiens, UniProt P08183); design: key: the inhibitor is active (+); it is inactive (−); the effect is unknown (?); conditions: cited from earlier work
Sequence of ABCB1 (P08183 whole entry): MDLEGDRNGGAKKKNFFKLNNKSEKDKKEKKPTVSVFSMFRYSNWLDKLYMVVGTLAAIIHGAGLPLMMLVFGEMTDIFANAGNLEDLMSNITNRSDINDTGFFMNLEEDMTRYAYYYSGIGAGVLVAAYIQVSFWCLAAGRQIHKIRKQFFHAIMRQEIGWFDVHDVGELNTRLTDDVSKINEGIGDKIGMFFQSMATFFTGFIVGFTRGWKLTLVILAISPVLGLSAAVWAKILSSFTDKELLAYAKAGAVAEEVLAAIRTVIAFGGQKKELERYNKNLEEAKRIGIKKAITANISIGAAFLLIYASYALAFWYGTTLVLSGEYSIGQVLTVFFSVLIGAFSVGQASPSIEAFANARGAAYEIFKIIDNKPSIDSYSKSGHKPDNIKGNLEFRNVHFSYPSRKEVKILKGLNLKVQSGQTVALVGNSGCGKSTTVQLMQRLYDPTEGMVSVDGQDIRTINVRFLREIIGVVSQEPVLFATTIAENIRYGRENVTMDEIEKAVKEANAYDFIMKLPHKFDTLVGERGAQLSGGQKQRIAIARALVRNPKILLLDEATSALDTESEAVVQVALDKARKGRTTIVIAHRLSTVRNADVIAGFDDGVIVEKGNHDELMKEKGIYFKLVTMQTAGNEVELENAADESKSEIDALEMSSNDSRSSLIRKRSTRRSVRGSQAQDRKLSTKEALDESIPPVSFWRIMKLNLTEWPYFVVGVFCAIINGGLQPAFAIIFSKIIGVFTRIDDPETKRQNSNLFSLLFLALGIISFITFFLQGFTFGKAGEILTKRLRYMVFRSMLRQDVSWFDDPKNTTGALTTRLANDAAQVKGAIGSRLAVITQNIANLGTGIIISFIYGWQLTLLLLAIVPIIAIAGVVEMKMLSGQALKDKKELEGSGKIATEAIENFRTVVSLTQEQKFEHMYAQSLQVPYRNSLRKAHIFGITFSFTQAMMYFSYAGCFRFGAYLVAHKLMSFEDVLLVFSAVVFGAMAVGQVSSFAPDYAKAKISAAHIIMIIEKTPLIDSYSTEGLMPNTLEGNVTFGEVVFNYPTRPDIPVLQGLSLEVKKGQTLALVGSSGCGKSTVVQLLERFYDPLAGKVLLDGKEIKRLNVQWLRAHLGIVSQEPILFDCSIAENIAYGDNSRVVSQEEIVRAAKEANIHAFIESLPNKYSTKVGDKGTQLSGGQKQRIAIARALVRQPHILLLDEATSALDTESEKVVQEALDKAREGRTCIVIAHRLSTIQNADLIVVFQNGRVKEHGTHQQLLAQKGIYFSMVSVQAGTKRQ

[1] = phase III; cited from earlier work
ABCC1 = ABCC1 (Homo sapiens, UniProt P33527); conditions: cited from earlier work
Sequence of ABCC1 (P33527 whole entry): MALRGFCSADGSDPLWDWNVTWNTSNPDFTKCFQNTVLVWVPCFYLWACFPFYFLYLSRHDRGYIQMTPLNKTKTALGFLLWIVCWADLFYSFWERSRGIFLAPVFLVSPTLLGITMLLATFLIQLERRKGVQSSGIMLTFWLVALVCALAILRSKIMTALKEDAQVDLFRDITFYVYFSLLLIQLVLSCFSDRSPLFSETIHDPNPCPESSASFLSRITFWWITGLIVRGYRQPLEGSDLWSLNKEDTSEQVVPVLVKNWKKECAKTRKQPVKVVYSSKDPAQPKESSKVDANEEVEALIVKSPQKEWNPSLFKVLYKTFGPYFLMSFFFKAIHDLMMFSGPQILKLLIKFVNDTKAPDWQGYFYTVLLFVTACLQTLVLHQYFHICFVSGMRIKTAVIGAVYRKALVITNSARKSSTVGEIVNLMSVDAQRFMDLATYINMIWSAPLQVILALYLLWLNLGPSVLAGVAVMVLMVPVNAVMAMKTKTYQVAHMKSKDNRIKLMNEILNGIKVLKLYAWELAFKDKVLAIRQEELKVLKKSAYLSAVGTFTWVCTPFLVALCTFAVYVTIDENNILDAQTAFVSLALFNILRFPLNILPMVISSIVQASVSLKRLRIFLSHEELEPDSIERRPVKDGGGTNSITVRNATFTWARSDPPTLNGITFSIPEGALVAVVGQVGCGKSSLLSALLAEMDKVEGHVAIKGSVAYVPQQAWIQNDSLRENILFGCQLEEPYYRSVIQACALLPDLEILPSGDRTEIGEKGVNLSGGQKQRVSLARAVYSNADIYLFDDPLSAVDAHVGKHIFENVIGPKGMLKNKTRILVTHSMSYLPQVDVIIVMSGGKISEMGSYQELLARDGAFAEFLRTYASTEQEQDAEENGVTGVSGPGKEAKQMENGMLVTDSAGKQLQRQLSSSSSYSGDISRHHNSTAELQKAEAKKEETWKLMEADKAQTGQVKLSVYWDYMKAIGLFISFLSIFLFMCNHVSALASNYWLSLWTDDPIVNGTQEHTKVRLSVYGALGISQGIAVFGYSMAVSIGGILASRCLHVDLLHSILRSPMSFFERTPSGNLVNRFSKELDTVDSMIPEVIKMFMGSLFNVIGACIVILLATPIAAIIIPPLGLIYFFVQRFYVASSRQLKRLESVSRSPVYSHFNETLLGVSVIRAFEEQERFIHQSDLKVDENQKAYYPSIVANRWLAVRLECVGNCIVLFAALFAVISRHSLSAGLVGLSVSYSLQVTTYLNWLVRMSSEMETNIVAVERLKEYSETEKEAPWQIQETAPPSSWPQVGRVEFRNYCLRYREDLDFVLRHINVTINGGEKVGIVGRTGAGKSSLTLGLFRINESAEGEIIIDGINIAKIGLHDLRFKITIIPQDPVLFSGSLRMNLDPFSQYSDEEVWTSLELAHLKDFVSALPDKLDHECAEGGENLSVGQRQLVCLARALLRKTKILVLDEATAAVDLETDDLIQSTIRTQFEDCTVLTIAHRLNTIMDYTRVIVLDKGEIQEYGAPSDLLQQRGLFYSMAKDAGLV

P-gp = target: T2, P-gp (Homo sapiens, UniProt P08183); assay: Flow cytometry, inhibition of mitoxantrone efflux in NIH3T3 cells expressing P-gp; format: cell-based; conditions: for inhibition at 1 h, 10 µM: human, probe mitoxantrone, read-out: % pump inhibition at 10 μM of compound, P-gp; for inhibition at 1 h, 10 µM / % pump inhibition at 10 μM of compound, P-gp: 10 μM compound; for inhibition at 1 h, 10 µM / IC50 / % pump inhibition at 10 μM of compound, P-gp: mitoxantrone efflux; for IC50: mathematical adjustment of experimental points
T2 construct: expressed in transfected cells; host or cells: NIH3T3 (ATCC CRL-1658), stably transfected with retroviral vector pHaMDR1/A
T2 sequence (P08183 whole entry): as the sequence (P08183 whole entry) above
From the text: (§1) The HEK-293 human fibroblast line (ATCC cell collection CRL-1573) is transfected with either BCRP (Robey R. W. et al. 2003, Br. J. Cancer 89(10) 1971-1978, [32]) or ABCC1, cloned into the pcDNA3.1 expression vector (Invitrogen), or with the empty pcDNA3.1 vector. The NIH3T3 cell line (ATCC CRL-1658) was stably transfected with pHaMDR1/A (Cardarelli et al. 1995 Cancer Res 55 1086-1091, [33]), which is a retroviral vector that expresses the wild-type MDR1 protein. The BHK-21 cell line (ATCC CCL-10) was transfected with MRP1 cloned into the pcDNA3.1 expression vector, or the empty pcDNA3.1 vector. The cells are maintained in culture in DMEM glutamax II (Invitrogen) supplemented with 10% of fetal bovine serum and 1% of penicillin/streptomycin. The data are processed with Sigmaplot V11 (http://www.systat.com/), and the equation for mathematical adjustment of the experimental data for calculating the IC50 values: f=a×(1−exp(−b×x)) (a=slope, b=intercept on the y-axis).
(§2) The cells expressing P-gp, BCRP and MRP, and their corresponding controls, are placed in the presence of 10 and 2 μM of mitoxantrone for the first two transporters and of 1 μM of daunorubicin for the 3rd. Substrate accumulation is carried out for 30 minutes at 37° C. in the presence or absence of varied concentrations of the molecules tested, at a final DMSO (dimethyl sulfoxide) concentration of 0.5%. After washing with PBS (phosphate buffered saline), the cells are incubated in medium containing the same concentrations of molecules tested as previously, for 1 h at 37° C. The intracellular fluorescence of mitoxantrone and daunorubicin anticancer agent is measured with the FACscan flow cytometer (Becton Dickinson, Mountain, View, Calif.). The drugs are excited at 488 nm. The emission of mitoxantrone is measured at 650 nm, whereas the emission of daunorubicin is measured at 530 nm. The effectiveness of the molecules tested is expressed by equation 1: % effectiveness=100×(FA−FBG)/(FC−FBG), where FA corresponds to the intracellular level of substrate measured in the cells overexpressing ABCG2 (corresponding to the lowest level of fluorescence in the absence of inhibitor), FC corresponds to the fluorescence in the control cells transfected with the empty vector (and therefore to the maximum accumulation of substrate in the cells) and FBG corresponds to the fluorescence measured in the absence of substrate and in the presence of inhibitor.
(§3) The inhibitory effect of the compounds is quantified by measuring, by flow cytometry, the efflux of an anticancer drug transported by the pump under consideration, i.e. mitoxantrone for P-gp and BCRP and daunorubicin for MRP1. It is compared with that of the reference product, reversin 121. The products are tested at 10 μM, then at 2 μM for those which block at least 80% of the efflux of mitoxantrone, and for some, a more complete concentration range is tested so as to establish the concentration value producing 50% inhibition, IC50, as indicated in FIG. 3.

BCRP = target: T3, BCRP (Homo sapiens, UniProt Q9UNQ0); assay: Flow cytometry, inhibition of mitoxantrone efflux in HEK-293 cells transfected with BCRP; format: cell-based; conditions: 10 μM compound
T3 construct: expressed in transfected cells; host or cells: HEK-293 (ATCC CRL-1573), pcDNA3.1 expression vector (Invitrogen)
T3 sequence (Q9UNQ0 1-655): T1 sequence (Q9UNQ0 1-655)
From the text: as §1, §2, §3

MRP1 = target: T4, MRP1 (Homo sapiens, UniProt P33527); assay: Flow cytometry, inhibition of daunorubicin efflux in cells transfected with MRP1; format: cell-based; conditions: 10 μM compound
T4 construct: expressed in transfected cells; host or cells: BHK-21 (ATCC CCL-10) with MRP1 in pcDNA3.1; HEK-293 transfected with ABCC1 in pcDNA3.1 is also described
T4 sequence (P33527 whole entry): as the sequence (P33527 whole entry) above
From the text: as §1, §2
The inhibitory effect of the compounds is quantified by measuring, by flow cytometry, the efflux of an anticancer drug transported by the pump under consideration, i.e. mitoxantrone for P-gp and BCRP and daunorubicin for MRP1. It is compared with that of the reference product, reversin 121. […]

[2] = test system: NIH3T3 cells expressing or not expressing P-gp; assay: Cytotoxicity test (MTT), cell survival after 72 h; format: cell-based
Description: The cells are seeded in a proportion of 10 000 per well in 96-well plates and incubated for 24 hours at 37° C. under 5% CO2. Varied concentrations of compounds Nos 2, 3, 4, 5 and 6, up to 20 times the IC50, are then added. The cytotoxicity is evaluated colorinnetrically with 3-(4,5-dimethylthiazol-2-yl)-2,5-diphenyltetrazolium bromide (MTT).
Increasing concentrations of compound No. 4 or No. 6 are applied to NIH3T3 cells expressing or not expressing P-gp. The cell survival is measured after 72 h and is expressed as a percentage. At 10 times the half-maximum-effect concentration, these two compounds are not toxic. Above this, the toxicity of compound No. 4 remains negligible, while that of compound No. 6 remains limited.

C/C=C/C[C@@H](C)C(=O)[C@H]1C(=O)N[C@@H](C(C)C)C(=O)N(C)CC(=O)N(C)[C@@H](CC(C)C)C(=O)N[C@@H](C(C)C)C(=O)N(C)[C@@H](CC(C)C)C(=O)N[C@@H](C)C(=O)N[C@H](C)C(=O)N(C)[C@@H](CC(C)C)C(=O)N(C)[C@@H](CC(C)C)C(=O)N(C)[C@@H](C(C)C)C(=O)N1C [PSC833 (valspodar)]
activity of MDR inhibitor on ABCG2 (ABCG2): −
activity of MDR inhibitor on ABCB1 (ABCB1): +

O[C@@H](COc1cccc2ncccc12)CN1CCN([C@@H]2c3ccccc3[C@@H]3[C@H](c4ccccc42)C3(F)F)CC1 [Ly335979 (zosuquidar)]
clinical outcome [1]: stopped in phase III because of their adverse effects
activity of MDR inhibitor on ABCG2 (ABCG2): −
activity of MDR inhibitor on ABCC1 (ABCC1): −

CC(C)(C)OC(=O)[C@H](CCCCNC(=O)OCc1ccccc1)NC(=O)[C@@H]1C[C@@H](OCC2CCCCC2)CN1C(=O)OC(C)(C)C [No. 5, N^α-Boc-trans-L-4-Hyp(CH2cHex)-L-Lys(Z)-OtBu]
inhibition at 1 h, 10 µM (P-gp): 82.2 ± 10.8%
IC50 (P-gp): 1.13 ± 0.34 µM
% pump inhibition at 10 μM of compound, BCRP (BCRP): 18.8 ± 10.0%

CC(C)(C)OC(=O)N[C@@H](CC(=O)OCc1ccccc1)C(=O)N[C@@H](CCCCNC(=O)OCc1ccccc1)C(=O)OC(C)(C)C [Reversin 121, reference compound] (Boc-Asp(OBn)-Lys(Cbz)-OtBu)
% pump inhibition at 10 μM of compound, P-gp (P-gp): 75.8 ± 1.6%
IC50 (P-gp): 1.41 ± 0.34 µM
% pump inhibition at 10 μM of compound, BCRP (BCRP): 37.2 ± 3.7%

CC(C)(C)OC(=O)C(CCCCNC(=O)OCc1ccccc1)NC(=O)C1CC(OC(=O)C2CCCCC2)CN1C(=O)OC(C)(C)C [No. 3, N^α-Boc-trans-L-4-Hyp(COcHex)-L-Lys(Z)-OtBu]
% pump inhibition at 10 μM of compound, MRP1 (MRP1; 10 µM): non measurable
IC50 for P-gp compared with that of reversin 121 (P-gp): better than that of reversin
inhibition at 1 h, 10 µM (P-gp): 106 ± 13.4%
IC50 (P-gp): 1.68 ± 0.28 µM
inhibition at 1 h, 10 µM (BCRP; human, HEK-293 cells transfected with BCRP, probe mitoxantrone, read-out: % pump inhibition at 10 μM of compound, BCRP): 11.2%

COc1cc2c(cc1OC)CN(CCc1ccc(NC(=O)c3cc(OC)c(OC)cc3NC(=O)c3cnc4ccccc4c3)cc1)CC2 [XR9576 (tariquidar)]
activity of MDR inhibitor on ABCG2 (ABCG2): +
activity of MDR inhibitor on ABCB1 (ABCB1): +

COc1cc2c(cc1OC)CN(CCc1ccc(NC(=O)c3cccc4c(=O)c5cccc(OC)c5[nH]c34)cc1)CC2 [GF120918 (elacridar)]
activity of MDR inhibitor on ABCG2 (ABCG2): +
activity of MDR inhibitor on ABCC1 (ABCC1): −
activity of MDR inhibitor on ABCB1 (ABCB1): +

CC(C)(C)OC(=O)[C@H](CCCCNC(=O)OCc1ccccc1)NC(=O)[C@@H]1C[C@@H](OC(=O)Cc2ccccc2)CN1C(=O)OC(C)(C)C (relative stereo) [No. 2, N^α-Boc-trans-L-4-Hyp(COBn)-L-Lys(Z)-OtBu]
% pump inhibition at 10 μM of compound, P-gp (P-gp): 68.0 ± 10.0%
% pump inhibition at 10 μM of compound, BCRP (BCRP): 10.0 ± 7.5%

CCOC/C=C/c1ccc(-c2nc(-c3ccc(NC(C)C)cc3)c(-c3ccc(NC(C)C)cc3)[nH]2)cc1 [ONT-093 (ontogeny)]
activity of MDR inhibitor on ABCC1 (ABCC1): −
activity of MDR inhibitor on ABCB1 (ABCB1): +

CC(C)(C)OC(=O)[C@H](CCCCNC(=O)OCc1ccccc1)NC(=O)[C@@H]1C[C@@H](OCc2ccccc2)CN1C(=O)OC(C)(C)C [No. 4, N^α-Boc-trans-L-4-Hyp(Bn)-L-Lys(Z)-OtBu] (Boc-[Hyp](Bn)-Lys(Cbz)-OtBu)
% pump inhibition at 10 μM of compound, MRP1 (MRP1): low or zero
inhibition at 1 h, 10 µM (MRP1; human, probe daunorubicin, read-out: % pump inhibition at 10 μM of compound, MRP1): < 10%
cytotoxicity ([2]; above 10 times the half-maximum-effect concentration): negligible
cytotoxicity ([2]; at 10 times the half-maximum-effect concentration): not toxic
IC50 for P-gp compared with that of reversin 121 (P-gp): twice as good
% pump inhibition at 10 μM of compound, P-gp (P-gp): 99.7 ± 11.0%
IC50 (P-gp): 0.73 ± 0.2 µM
% pump inhibition at 10 μM of compound, BCRP (BCRP; 10 µM): 16.6 ± 3.4%

COc1cc(C(=O)C(=O)N2CCCC[C@H]2C(=O)OC(CCCc2cccnc2)CCCc2cccnc2)cc(OC)c1OC [VX-710 (biricodar)]
activity of MDR inhibitor on ABCG2 (ABCG2): +
activity of MDR inhibitor on ABCC1 (ABCC1): +
activity of MDR inhibitor on ABCB1 (ABCB1): +

COC(=O)c1cnc2n1CCc1ccccc1C2=C1CCN(CCc2ccc(OCc3ccc4ccccc4n3)cc2)CC1 [R101933 (laniquidar)]
activity of MDR inhibitor on ABCB1 (ABCB1): +
